Measurements: US11279726B2, “Norbornene-based amphipathic compound and utilization thereof” (Industry-University Cooperation Foundation Hanyang …, priority 2017, dated 2022)
“Also recorded” adds a separate entry of the source.

Experiments:
[1] = biological target: T1, human β2 adrenergic receptor (β2AR) (Homo sapiens, UniProt P07550); assay: β2AR stability: [3H]-DHA ligand binding activity of solubilized receptor; details: 0.2% amphiphile, room temperature, 3 days (7 days for receptor extracted with the amphiphile)
T1 construct: made in house
T1 sequence (P07550 whole entry): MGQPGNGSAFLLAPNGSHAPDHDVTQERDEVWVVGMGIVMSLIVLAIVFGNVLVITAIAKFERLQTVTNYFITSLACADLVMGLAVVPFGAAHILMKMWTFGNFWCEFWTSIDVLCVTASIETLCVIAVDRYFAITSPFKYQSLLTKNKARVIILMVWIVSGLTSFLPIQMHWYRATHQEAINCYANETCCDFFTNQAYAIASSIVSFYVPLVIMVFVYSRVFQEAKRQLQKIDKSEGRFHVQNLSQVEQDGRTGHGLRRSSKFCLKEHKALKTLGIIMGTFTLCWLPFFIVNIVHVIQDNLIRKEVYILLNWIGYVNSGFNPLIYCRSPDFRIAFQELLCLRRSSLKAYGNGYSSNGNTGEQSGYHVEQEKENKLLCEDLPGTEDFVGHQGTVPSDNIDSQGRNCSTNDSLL
Experimental: An experiment of measuring the stability of human β2 adrenergic receptor (β2AR) and G-protein-coupled receptor (GPCR) for NBMs was carried out. That is, the receptor was extracted from the cell membranes by DDM and purified in the same amphiphilic compound. The DDM-purified receptor was diluted in individual DDM- or NBM-containing buffers to adjust the final compound concentration to be CMC+0.2 wt %. The receptor stability was assessed by measuring ligand binding activity using [3H]-DHA.
To measure long-term stability of human β2AR with NBMs (D-NBM-C11 and X-NBM-C11) showing an excellent ligand binding activity of the receptor in the previous experiment, a radio-labeled ligand binding experiment was performed by the following method. β2AR was purified using 0.1% DDM (D. M. Rosenbaum et al., Science, 2007, 318, 1266-1273), and finally concentrated to approximately 10 mg/ml (approximately 200 μM). A main binding mixture containing 10 nM [^3H]-DHA supplemented with 0.5 mg/ml BSA was prepared in 0.2% amphiphilic compound (DDM or NBMs (D-NBM-C11 and X-NBM-C11)) using β2AR purified with DDM. The receptor purified with DDM or NBMs was incubated with 10 nM [^3H]-DHA at room temperature for 30 minutes. The mixture was loaded onto a G-50 column, the fractions were collected in a 1 ml binding buffer (20 mM HEPES pH 7.5, 100 mM NaCl, containing 0.5 mg/ml BSA and 20× CMC individual amphiphilic compounds). In addition, each fraction was supplemented with a 15 ml scintillation fluid, and receptor-bound [^3H]-DHA was measured using a scintillation counter (Beckman) at regular intervals for 3 days. The binding capacity of [^3H]-DHA was shown as a bar chart (FIG. 11a).
In addition, β2AR was extracted from the membrane using 1.0 wt % of DDM or X-NBM-C11 and purified at 0.2 wt % for the same individual amphiphilic compounds. Structural stability of the receptor was assessed by ligand binding activity, which was measured with sample aliquots at regular intervals during 7-day incubation at room temperature. Each experiment was carried out in triplicate (FIG. 12b).

mBBr-β2AR = mBBr-β2AR (Homo sapiens, UniProt P07550); assay: Gs-protein coupling assay, bimane fluorescence of mBBr-β2AR; details: 0.1% amphiphile, 2 μM ISO, 250 nM Gs
mBBr-β2AR, sequence (P07550 whole entry): as above
Experimental: To investigate a protein function, the receptor was conjugated with a fluorophore (monobromobimane; mBBr). The mBBr-β2AR was used to monitor the conformational changes of the receptor in the presence of binding partners (isopreoterenol (ISO) and Gs-protein) through fluorescence measurement, and detailed experimental methods are as follows.
0.5 μl undispersed mBBr-labeled receptor at 50 μM in DDM was diluted with 500 μl 0.1% NBM or DDM-containing buffer, and incubated for 15 minutes at room temperature, thereby obtaining a receptor having a final concentration of 50 nM. 2 μM isoproterenol (ISO) was added and the resulting solution was further incubated for 15 minutes at room temperature. After addition of 250 nM Gs, the protein samples were further incubated at room temperature for 20 minutes. Bimane fluorescence was measured by excitation at 370 nm, and emission spectra were recorded from 430 nm to 510 nm in a unit of 1 nm increments with 0.5 nm/s integration on a Spex FluoroMax-3 spectrofluorometer (Jobin Yvon Inc.) in photon counting mode set at 4-nm emission bandwidth pass. The mBBr response in 0.1% DDM was used as a positive control.

[2] = biological target: T2, Salmonella typhimurium melibiose permease (MelBSt) (Salmonella typhimurium, UniProt P30878); assay: MelBSt extraction and thermostability (SDS-PAGE / western blotting); details: 1.5 wt %, elevated temperature
T2 construct: made in house; host or cells: E. coli DW2 (ΔmelB, ΔlacZY)
T2 sequence (P30878 whole entry): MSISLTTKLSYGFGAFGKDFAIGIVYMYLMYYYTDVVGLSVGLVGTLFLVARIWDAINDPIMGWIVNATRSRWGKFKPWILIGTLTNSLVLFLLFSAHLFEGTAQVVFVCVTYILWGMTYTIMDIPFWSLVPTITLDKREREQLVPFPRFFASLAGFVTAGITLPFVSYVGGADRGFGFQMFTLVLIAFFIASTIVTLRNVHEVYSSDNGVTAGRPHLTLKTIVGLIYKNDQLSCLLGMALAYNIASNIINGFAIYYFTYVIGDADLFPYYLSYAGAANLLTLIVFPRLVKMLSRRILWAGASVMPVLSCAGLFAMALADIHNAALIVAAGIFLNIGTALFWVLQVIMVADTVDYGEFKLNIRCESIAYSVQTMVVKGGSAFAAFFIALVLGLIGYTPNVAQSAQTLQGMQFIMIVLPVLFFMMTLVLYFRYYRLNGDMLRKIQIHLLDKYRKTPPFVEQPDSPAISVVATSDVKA
Experimental: An experiment of measuring structural stability of MelBSt (Salmonella typhimurium melibiose permease) protein with NBMs was carried out. The MelBSt protein was extracted from the membrane using NBMs or DDM, and the amounts and structure of the extracted proteins were analyzed by SDS-PAGE and western blotting. The concentration of the used amphiphilic compound was 1.5 wt %. The proteins were extracted at four temperatures (0, 45, 55, and 65° C.) and incubated at the same temperature for 90 minutes, and the amounts of the remaining proteins solubilized in an aqueous solution were measured, so as to simultaneously evaluate both performances of the compound such as protein extraction efficiency and stabilization activity. The amounts of the proteins extracted and stabilized by respective amphiphilic molecules were represented as relative values (%) to the amounts of total proteins contained in the membrane sample not treated with an amphiphilic molecule.
Specifically, Salmonella typhimurium melibiose permease (MelBSt) with a C-terminal 10-His tag was expressed in E. coli DW2 cells (^ΔmelB and ^ΔlacZY) using plasmid pK95^ΔAHB/WT MelBSt/CH10. Cell growth and membrane preparation were carried out according to the method described in the literature written by A. S. Ethayathulla et al. (Nat. Commun. 2014, 5, 3009). Protein assays were carried out with a Micro BCA kit (Thermo Scientific, Rockford, Ill.). The measurement of MelBSt stability was carried out on NBMs or DDM according to the protocol described by P. S. Chae et al. (Nat. Methods 2010, 7, 1003-1008). Membrane samples containing MelBSt (final protein concentration was 10 mg/mL) were incubated with a solubilization buffer (20 mM sodium phosphate, pH 7.5, 200 mM NaCl, 10% glycerol, 20 mM melibiose) and 1.5% (w/v) of DDM or NBMs (X-NBM-C10, D-NBM-C10, X-NBM-C11 or D-NBM-C11) at four different temperatures (0, 45, 55, 65° C.) for 90 minutes. To remove insoluble materials, following ultracentrifugation at 355,590 g using a Beckman Optimal™ MAX ultracentrifuge with TLA-100 rotor for 45 minutes at 4° C. was performed, and 20 μg of each protein sample was separated by SDS-16% PAGE, and then immunoblotted with a Penta-His-HRP antibody (Qiagen, Germantown, Md.). MelBSt was detected using SuperSignal West Pico chemiluminescent substrate by an ImageQuant LAS 4000 Biomolecular Imager (GE Health Care Life Science).

SMILES | Long-term ligand binding activity of β2AR ([3H]-DHA) [1] | Conformational change / function of mBBr-β2AR with ISO and Gs (mBBr-β2AR) | MelBSt membrane protein stabilization activity (overall) [2]
CCCCCCCCCCCOCC1C2CC([C@H]1COCCCCCCCCCCC)[C@H](O[C@@H]1OC(CO)[C@@H](O[C@H]3OC(CO)[C@@H](O)C(O)C3O)C(O)C1O)C2O[C@@H]1OC(CO)[C@@H](O[C@H]2OC(CO)[C@@H](O)C(O)C2O)C(O)C1O (stereo partly shown) [X-NBM-C11] | well retained; also recorded: highest ligand binding retention property | retains an original protein function | 
CCCCCCCCCCCOCC1C2CC([C@@H]1COCCCCCCCCCCC)[C@H](O[C@@H]1OC(CO)[C@@H](O[C@H]3OC(CO)[C@@H](O)C(O)C3O)C(O)C1O)C2O[C@@H]1OC(CO)[C@@H](O[C@H]2OC(CO)[C@@H](O)C(O)C2O)C(O)C1O (stereo partly drawn) [D-NBM-C11] | well retained |  | excellent membrane protein stabilization activity
